Experiments:
[1] = Phase I safety study: hematology, clinical chemistry, coagulation; assay type: in vivo, human
Procedure: (§1) After obtaining informed consent, treatment was initiated within 5 days of enrollment. Subjects were housed in a hospital ward and received 160 ppm gNO for 30 minutes every four hours (Q4h), five times a day, for five consecutive days by inhalation. Subjects returned for follow-up evaluations 3, 7 and 21 days after the final gNO administration. Subject safety was determined by monitoring vital signs, methemoglobin levels, lung function, blood chemistry, hematology, prothrombin time, inflammatory cytokine/chemokines levels and endothelial activation. These parameters were compared to baseline and at various time-points during and after gNO administration.
(§2) Hematological assessment included a complete blood count and differentials (hemoglobin, hematocrit, red blood cell count, white blood cell count, white blood cell differential, and platelet count) were obtained in order to monitor blood chemistry, hematology and inflammation measurements. The blood chemistry profile included serum creatinine, and liver function tests such as aspartate aminotransferase (AST) serum glutamic oxaloacetic transaminase (SGOT), alkaline phosphatase, and gamma-glutamyl transferase (GGT). The effect of gNO on coagulation was determined by the prothrombin time (PT) and its derived measures of prothrombin ratio (PR) and international normalized ratio (INR). Heparinized plasma was collected at baseline and on days 1, 2, 4, and 5 of gNO administration, and on follow-up days 3, 7 and 21 and frozen at −80° C. Plasma cytokine levels were assessed using the human inflammation cytokine bead array kit (BD Bioscience, Canada). Plasma levels of angiopoietin Ang-1 and Ang-2 were determined by ELISA (R&D Systems, USA).

[2] = test system: inflammatory cytokines; assay: Phase I safety study: plasma cytokines by cytometric bead array; assay type: in vivo, human; settings: 160 ppm gNO inhalation
Procedure: as §1, §2
To assess whether gNO inhalation may cause inflammation or endothelial activation cytokines and the vascular endothelium activation factors Ang-1 and Ang-2 were quantified in peripheral plasma at baseline at various time points thereafter.

[3] = test system: S. aureus (ATCC); settings: 200 ppm gNO, saline; cited from earlier work
[4] = test system: Klebsiella sp.#2; settings: 200 ppm gNO, saline; cited from earlier work
[5] = test system: Klebsiella sp.#3; settings: 200 ppm gNO, saline; cited from earlier work
[6] = test system: Acinetobacter sp.; settings: 200 ppm gNO, saline; cited from earlier work
[7] = test system: MRSA biofilm; settings: 200 ppm gNO for eight hours (1,600 ppm hours); cited from earlier work
[8] = continuous delivery of 80 ppm gNO; cited from earlier work
[9] = OSHA / Environmental Protection Agency; cited from earlier work

In the case of [N]=O [gNO, nitric oxide], the “eosinophil cell numbers, end of study” value ([1]; baseline 0.15 giga/L, p=0.104) is reported as 0.19 giga/L, the “blood coagulation parameters, clinical chemistry and hematological parameters” value ([1]; baseline to completion of day 5) is reported as “no statistically, nor clinically significant changes” and the “neutrophil cell numbers, end of study” value ([1]; baseline value of zero, p=0.169) is reported as 0.01 giga/L. The “plasma IL-1b level versus baseline” value [2] was “unaffected”, the “plasma IL-6 level versus baseline” value [2] was “unaffected” and the “plasma IL-8 level versus baseline” value [2] was “unaffected”. For the same compound, the “plasma IL-10 level versus baseline” value [2] was “unaffected”, the “plasma IL-12p70 level versus baseline” value [2] was “unaffected” and the “plasma TNF level versus baseline” value [2] was “unaffected”. The LD100 [3] was 4 h, the “Latent Period” value [3] was 3 h and the “−2.5 Log10” value [3] was 3.3 hours. The LD100 [4] was 5 h, the “Latent Period” value [4] was 2 h and the “−2.5 Log10” value [4] was 4.1 hours. The LD100 [5] was 6 h, the “Latent Period” value [5] was 3 h and the “−2.5 Log10” value [5] was 5.1 hours. For the same compound, the LD100 [6] was 6 h, the “Latent Period” value [6] was 4 h and the “−2.5 Log10” value [6] was 5 hours. The MRSA in biofilm [7] was “shown to reduce MRSA”, the NO2 level [8] was 2.6 ppm and the “increase of SpMet levels” value [8] was “at least 5%”. The “subjects exceeding 7% SpMet” value [8] was 35% and the “inhalation threshold limit value (TLV) as a time-weighted average (TWA)” value [9] was 25 ppm.
